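Each compound was tested at five concentrations against cells in 96-well plates for 48 hours. Here, GI50 denotes the concentration required for 50% inhibition of growth.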 Activity calls are given as the source filed them. Rule as the data show it: active = GI50 up to about 1.1 µM and inactive = higher.
Assays:
Test in all cases: DTP human tumour cell line panel, 48 h
[1] = test system: SK-MEL-2
[2] = test system: KM12
[3] = test system: RXF 393
[4] = test system: HCT-116
[5] = test system: SK-MEL-28
[6] = test system: HT-29
[7] = test system: T47D
[8] = test system: DU-145
[9] = test system: ACHN
[10] = test system: IGROV-1
[11] = test system: CCRF-CEM
[12] = test system: HL-60
[13] = test system: MDA-MB-231
[14] = test system: HCC 2998
[15] = test system: OVCAR-5
[16] = test system: SW-620
[17] = test system: Malme-3M
[18] = test system: PC-3
[19] = test system: M14
[20] = test system: MCF7

| SMILES | GI50 [1] | GI50 [2] | GI50 [3] | GI50 [4] | GI50 [5] | GI50 [6] | GI50 [7] | GI50 [8] | GI50 [9] | GI50 [10] | GI50 [11] | GI50 [12] | GI50 [13] | GI50 [14] | GI50 [15] | GI50 [16] | GI50 [17] | GI50 [18] | GI50 [19] | GI50 [20] |
| --- | --- | --- | --- | --- | --- | --- | --- | --- | --- | --- | --- | --- | --- | --- | --- | --- | --- | --- | --- | --- |
| Cc1ccc(-n2cc(-c3ccc(Cl)cc3)c3c(NN)ncnc32)cc1 | 15.1 µM (inactive) | 10.7 µM (inactive) | 2.75 µM (inactive) | 2.4 µM (inactive) | 3.66 µM (inactive) | 4.48 µM (inactive) | 2.55 µM (inactive) | 3.49 µM (inactive) | 3.31 µM (inactive) | 1.85 µM (inactive) | 0.566 µM (active) | 2.1 µM (inactive) | 6.89 µM (inactive) | 2.89 µM (inactive) | 6.43 µM (inactive) | 6.07 µM (inactive) | 3.1 µM (inactive) | 5.55 µM (inactive) | 1.38 µM (inactive) | – |
| CCN(CC)CCSc1nc2c(c(=N)n1-c1ccccc1)c(=S)n(-c1ccccc1)c(=S)n2-c1ccccc1 | 7.55 µM (inactive) | 5.69 µM (inactive) | 1.36 µM (inactive) | 2.06 µM (inactive) | 3.62 µM (inactive) | 1.77 µM (inactive) | 2.61 µM (inactive) | 1.67 µM (inactive) | 1.74 µM (inactive) | 1.64 µM (inactive) | 0.0843 µM (active) | 0.0559 µM (active) | 1.83 µM (inactive) | 1.58 µM (inactive) | 14.9 µM (inactive) | 1.67 µM (inactive) | 1.55 µM (inactive) | 1.8 µM (inactive) | 2.16 µM (inactive) | – |
| CCOC(=O)[C@@H]1ON2O[C@@H](OC3CCCC3(c3ccccc3)c3ccccc3)C[C@H]3OC(=O)[C@@H]1C32 (stereo partly specified) | – | 15.6 µM (inactive) | 17.1 µM (inactive) | 33.8 µM (inactive) | – | 15.2 µM (inactive) | 22.3 µM (inactive) | 22.6 µM (inactive) | 19.5 µM (inactive) | 33.8 µM (inactive) | 27.5 µM (inactive) | 23.2 µM (inactive) | 25.2 µM (inactive) | 41.8 µM (inactive) | 20.9 µM (inactive) | 24.7 µM (inactive) | – | – | 16.6 µM (inactive) | 20.8 µM (inactive) |
| CN1C(C(=O)Nc2ccccn2)=C(O)c2ccccc2S1(=O)=O [PIROXICAM] | > 100 µM (inactive) | > 100 µM (inactive) | > 100 µM (inactive) | > 100 µM (inactive) | > 100 µM (inactive) | > 100 µM (inactive) | > 100 µM (inactive) | > 100 µM (inactive) | > 100 µM (inactive) | – | > 100 µM (inactive) | > 100 µM (inactive) | – | – | > 100 µM (inactive) | > 100 µM (inactive) | > 100 µM (inactive) | > 100 µM (inactive) | > 100 µM (inactive) | > 100 µM (inactive) |
| O=c1[nH]c2c(c(=O)[nH]1)SC(c1ccccc1)C2 (stereo unspecified) | 93.8 µM (inactive) | > 100 µM (inactive) | > 100 µM (inactive) | > 100 µM (inactive) | > 100 µM (inactive) | > 100 µM (inactive) | – | > 100 µM (inactive) | > 100 µM (inactive) | > 100 µM (inactive) | > 100 µM (inactive) | > 100 µM (inactive) | > 100 µM (inactive) | > 100 µM (inactive) | > 100 µM (inactive) | > 100 µM (inactive) | > 100 µM (inactive) | > 100 µM (inactive) | > 100 µM (inactive) | 94 µM (inactive) |
| CCOC(=O)c1cc(-c2ccc(OC)cc2)c([N+](=O)[O-])n1C | > 10 µM (inactive) | > 10 µM (inactive) | 2.13 µM (inactive) | > 10 µM (inactive) | – | > 10 µM (inactive) | – | > 10 µM (inactive) | > 10 µM (inactive) | > 10 µM (inactive) | > 10 µM (inactive) | > 10 µM (inactive) | – | > 10 µM (inactive) | > 10 µM (inactive) | – | > 10 µM (inactive) | – | > 10 µM (inactive) | – |
| Nc1nc(Cc2ccccc2)nc(Cc2ccccc2)c1-c1ccccc1 | 13.6 µM (inactive) | 28.1 µM (inactive) | 22.6 µM (inactive) | 19.5 µM (inactive) | 48.1 µM (inactive) | 21.9 µM (inactive) | 36.8 µM (inactive) | 22.8 µM (inactive) | 29 µM (inactive) | 26.4 µM (inactive) | – | 24 µM (inactive) | 18.7 µM (inactive) | 46.6 µM (inactive) | 29.1 µM (inactive) | 33.9 µM (inactive) | 20.4 µM (inactive) | 23.1 µM (inactive) | 30.3 µM (inactive) | – |
| FC(F)(F)c1cc(Cl)cnc1N/N=C(/c1ccccc1)c1ccccn1 | 3.96 µM (inactive) | 1.85 µM (inactive) | 9.66 µM (inactive) | 3.16 µM (inactive) | 6.92 µM (inactive) | 0.248 µM (active) | – | 4.46 µM (inactive) | 2.92 µM (inactive) | 1.92 µM (inactive) | 0.492 µM (active) | – | 4.09 µM (inactive) | 8 µM (inactive) | 2 µM (inactive) | 3.85 µM (inactive) | – | 3.54 µM (inactive) | 0.719 µM (active) | 3.13 µM (inactive) |
| CN(C)CCCN1c2ccc3ccccc3c2Sc2cccc(Cl)c21 | 1.99 µM (inactive) | 2.08 µM (inactive) | 3.82 µM (inactive) | 3.79 µM (inactive) | 2.18 µM (inactive) | 2.04 µM (inactive) | 2.46 µM (inactive) | 4.54 µM (inactive) | 3.38 µM (inactive) | 1.54 µM (inactive) | 1.52 µM (inactive) | 1.63 µM (inactive) | 2.32 µM (inactive) | 1.61 µM (inactive) | 5.13 µM (inactive) | 2.04 µM (inactive) | 5.13 µM (inactive) | 3.01 µM (inactive) | 1.89 µM (inactive) | – |
| CCCCCCCCCC(=O)NC(CCC(=O)N(CCNC(=O)c1nc(-c2ccccc2)oc1-c1ccccc1)Cc1ccccc1)C(=O)O (stereo unspecified) | – | 19.7 µM (inactive) | 17.6 µM (inactive) | 17.7 µM (inactive) | 22.3 µM (inactive) | 18 µM (inactive) | 20.4 µM (inactive) | 20.3 µM (inactive) | 18.8 µM (inactive) | 19.5 µM (inactive) | – | – | 19.9 µM (inactive) | – | 17.1 µM (inactive) | 23.3 µM (inactive) | 16.4 µM (inactive) | – | 15 µM (inactive) | – |
| O=C1c2cccc3cccc(c23)C(=O)N1CCCNOCCONCCCN1C(=O)c2cccc3cccc(c23)C1=O | > 100 µM (inactive) | > 100 µM (inactive) | 29.4 µM (inactive) | 27.4 µM (inactive) | > 100 µM (inactive) | 92.5 µM (inactive) | – | > 100 µM (inactive) | > 100 µM (inactive) | 62.8 µM (inactive) | 11.8 µM (inactive) | 4.84 µM (inactive) | > 100 µM (inactive) | 98.2 µM (inactive) | > 100 µM (inactive) | 66.4 µM (inactive) | 91.2 µM (inactive) | 55.1 µM (inactive) | 62.4 µM (inactive) | 64.7 µM (inactive) |
| O=C(Nc1ccccc1[N+](=O)[O-])C(=O)C(C(=O)c1ccccc1-c1ccccc1)C1OC(=O)c2ccccc21 (stereo unspecified) | 16.7 µM (inactive) | 16.2 µM (inactive) | 12.1 µM (inactive) | 18.2 µM (inactive) | 18.2 µM (inactive) | 24 µM (inactive) | – | – | 30.8 µM (inactive) | 23.7 µM (inactive) | 13.5 µM (inactive) | 14.7 µM (inactive) | – | 14.8 µM (inactive) | 20.3 µM (inactive) | 18.5 µM (inactive) | 13 µM (inactive) | – | 15.5 µM (inactive) | – |
| Cc1ccccc1-n1c(=O)c2ncn(C3CCCO3)c2n(-c2ccccc2C)c1=S (stereo unspecified) | > 100 µM (inactive) | > 100 µM (inactive) | > 100 µM (inactive) | > 100 µM (inactive) | – | > 100 µM (inactive) | > 100 µM (inactive) | > 100 µM (inactive) | > 100 µM (inactive) | > 100 µM (inactive) | > 100 µM (inactive) | > 100 µM (inactive) | > 100 µM (inactive) | > 100 µM (inactive) | > 100 µM (inactive) | > 100 µM (inactive) | > 100 µM (inactive) | – | > 100 µM (inactive) | > 100 µM (inactive) |
| C=CC[C@H](O)[C@@](NC(=O)OCc1ccccc1)(Sc1ccc(C)cc1)C(F)(F)F | 26.8 µM (inactive) | 25.8 µM (inactive) | 23.3 µM (inactive) | 20.5 µM (inactive) | 43.7 µM (inactive) | 23.9 µM (inactive) | – | 35.7 µM (inactive) | > 100 µM (inactive) | 10.1 µM (inactive) | – | 11.5 µM (inactive) | 24.8 µM (inactive) | > 100 µM (inactive) | 28.3 µM (inactive) | 32.1 µM (inactive) | 56.8 µM (inactive) | 29.8 µM (inactive) | 20.7 µM (inactive) | 23.5 µM (inactive) |
| CCOC(=O)C1=C(C)N(c2ccc(C)cc2)C2(O)C=CC(O)=C3C(=O)c4ccccc4C(=O)C312 (stereo unspecified) | 37.1 µM (inactive) | 35.6 µM (inactive) | 28.8 µM (inactive) | 48.5 µM (inactive) | 24.9 µM (inactive) | 25 µM (inactive) | – | 23.6 µM (inactive) | 22.7 µM (inactive) | 19.5 µM (inactive) | 5.05 µM (inactive) | < 0.01 µM (active) | 34.4 µM (inactive) | 29.3 µM (inactive) | 54.2 µM (inactive) | 28.1 µM (inactive) | 20.6 µM (inactive) | 25.1 µM (inactive) | 36.6 µM (inactive) | 23.3 µM (inactive) |
| CCN(CCCl)CCCNc1c2ccccc2nc2ccc(OC)cc12 | 0.418 µM (active) | 0.141 µM (active) | 0.215 µM (active) | 0.0585 µM (active) | 0.743 µM (active) | 0.0853 µM (active) | – | – | 0.149 µM (active) | 0.102 µM (active) | 0.0993 µM (active) | 0.039 µM (active) | – | 0.535 µM (active) | 0.344 µM (active) | 0.0371 µM (active) | 0.603 µM (active) | – | 0.522 µM (active) | – |
